Data set [1] deals with T1, hAPJ receptor (Homo sapiens, UniProt P35414).
T1 construct: expressed in transfected cells; host or cells: HEK293, transient transfection with PEI
T1 sequence (P35414 1-380): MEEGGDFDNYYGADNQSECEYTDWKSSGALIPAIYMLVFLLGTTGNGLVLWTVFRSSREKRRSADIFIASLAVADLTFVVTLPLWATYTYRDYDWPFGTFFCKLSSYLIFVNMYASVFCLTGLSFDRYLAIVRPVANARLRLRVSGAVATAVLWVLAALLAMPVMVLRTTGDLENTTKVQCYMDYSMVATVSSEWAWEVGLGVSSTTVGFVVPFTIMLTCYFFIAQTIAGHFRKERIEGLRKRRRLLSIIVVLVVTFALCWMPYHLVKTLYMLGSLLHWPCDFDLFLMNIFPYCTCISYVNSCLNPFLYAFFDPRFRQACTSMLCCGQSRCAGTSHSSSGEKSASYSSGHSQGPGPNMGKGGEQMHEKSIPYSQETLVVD
Briefly: BRET-based β-arrestin2 recruitment assay in HEK293 cells. It is filed as cell-based. Conditions: for Emax: HEK293. The essentials:
(§1)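 HEK293 cells in HBSS stimulated with analogs from 10^−5 to 10^−11 M, 5 min at 37 °C (Gαi1) or 30 min at room temperature (β-arrestin2).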
(In BRET a luciferase serves as donor, and the signal depends on an acceptor being close.)

Data set [2] deals with T1, hAPJ receptor. Briefly: BRET-based Gαi1 activation assay in HEK293 cells. The class given is cell-based. Conditions: for Emax: HEK293, Table V, read-out: Gαi1 Emax. The essentials:
as §1

Data set [3] concerns anesthetized male Sprague-Dawley rats. Briefly: In vivo blood pressure measurement. The arrangement: species or system rat. Conditions: i.v. bolus, doses 19.6 and 65 nmol/kg. How it is done: The animal experimental protocols were approved by the Animal Care Committee of Université de Sherbrooke and complied with policies and directives of the Canadian Council on Animal Care.
Male Sprague-Dawley rats (8-10 weeks of age) were anesthetized with ketamine/xylazine injection (87/13 mg/kg i.m.) and placed in supine position on a thermostatic pad. Their right carotid artery was catheterized with PE 50 (filled with heparinized saline), connected to a Micro-Med transducer (model TDX-300, Calabasas, USA) and Micro-Med blood pressure analyzer (model BPA-100c). […] This i.v. catheter was flushed with saline (0.2 mL) immediately after each injection.

Data set [4] is described as follows: Rat plasma stability (half-life in vitro). The class given is in vitro ADME. Conditions: rat plasma. As for the experimental part: Plasma was obtained from male Sprague-Dawley rats by collecting blood in heparin tube and centrifugating at 13,000 rpm to remove blood cells. The isolated plasma was stored at −80° C. and thawed right before the test. In 96-well plate, 6 μL of peptide solution at 1 mM was incubated with 27 μL of plasma at 37° C. in an oven equipped with orbital shaker. Tightly fitted caps were used to seal the wells to avoid water evaporation during incubation. […] A 96-well UPLC plate was put at the bottom to collect the samples. Both plates were centrifuged at 500 g for 10 min at 4° C. to accelerate the filtration. […] The quantity of remaining peptide was plotted into an exponential one-phase decay curve using GraphPad Prism 8 which allowed to calculate peptide half-life. The results were presented as mean±SEM of at least 3 independent experiments, each done in simplicate.
The percentage of remaining analogue was calculated by doing the ratio between AU of compound and AUC of internal standard. Half-lives were extrapolated from curves.

In data set [5] the test system is Sprague-Dawley rats. The experiment in a line: Echocardiography (cardiac performance) after s.c. injection. Conditions: s.c. 0.2 μmol/kg, three hours after injection.
Data set [6] in a line: in vivo. Conditions: for AUC: male Sprague-Dawley rats. As for the experimental part:
Male Sprague-Dawley rats of 8-10 weeks were used in this study. […] Animals were placed in a containment chamber prior to i.v. injection to facilitate blood sampling. […] Those samples were immediately stored on crushed ice before being centrifuged at 13000 rpm for 5 min at 4° C. to isolate plasma (upper layer). The resultant plasma was transferred to polypropylene tubes, and immediately frozen at −80° C.
A combination of a protein precipitation and a solid phase extraction step were used to extract the peptides. Plasma sample was defrosted on ice. After vortex agitation (60 s), 100 μL sample was withdraw and 300 μL cold acetonitrile was added to precipitate the plasma proteins. The sample was then vortex (60 s) and centrifuged at 4500 rpm at 4° C. during 10 min. The supernatant was then isolated and directly pass through an HLB prime for additional clean up. The filtrate was diluted 10 times in 0.1% formic acid/water and filtered through a 0.22 μm syringe filter before LC/MS/MS analysis.
Samples were analyzed on a Sciex Qtrap 6500+ equipped with a microflow liquid chromatography (Eksigient M3 microflow) and a UPLC HSS-T3 column (1 mm×100 mm, 1.8 μm, equipped with a 0.2 μm fritted pre-filter). The solvent flow rate was set to 50 μL/min, the column temperature was kept at 40° C. and the injection volume was 3 μL. The mobile phase was 0.1% formic acid/water (A) and 0.1% formic acid/acetonitrile (B). The elution gradient starts with 2% of eluent B, increasing to 95% in 8 min, maintaining at 95% for 2 min and then back to initial conditions in 2 min for a total run time of 13 min. […] Analysis used two daughter traces (transitions), among them, the most abundant was for quantification and the second most abundant for confirmation.

Data set [7] has as its target T2, YFP-tagged human APJ receptor (human, UniProt P35414 1-380).
T2 construct: whole, on cells; also called hAPJ; APJ WT; not shown: YFP tag
T2 sequence (looked up): T1 sequence (P35414 1-380)
The experiment in a line: competitive radioligand binding, HEK293-hAPJ membranes.

In data set [8] the target is T3, human APJ (transfected HEK293 cells, Gαi1 BRET assay) (human, UniProt P35414 1-380).
T3 sequence (looked up): T1 sequence (P35414 1-380)
The experiment in a line: cell-based or functional assay.

The target in data set [9] is T2, YFP-tagged human APJ receptor. The experiment in a line: competitive radioligand binding, HEK293-hAPJ membranes. The source holds these as a separate data set.

Read-outs that look alike come from different tables or passages of the source. Numbered stars: 1 amine (or outer) side, 2 acyl side, 3 side chain; on linkers, the order of the positions; unused ones are H or OH. Bridge positions count the residues as written; N and C are the ends. Square brackets hold non-standard residues; d marks the D form. Ends that are not written are not given here. * marks the point of attachment. cypTyr(OBn) = 3-cyclopentyl-O-benzyl-L-tyrosine, O=C([C@H](Cc1ccc(OCc2ccccc2)c(C2CCCC2)c1)N[*:1])[*:2]; cypY = 3-cyclopentyl-tyrosine, O=C([C@H](Cc1ccc(O[*:3])c(C2CCCC2)c1)N[*:1])[*:2]; Tyr(OBn) = O-benzyl-tyrosine, O=C([C@H](Cc1ccc(OCc2ccccc2)cc1)N[*:1])[*:2]; pent‑4‑enoyl = des-amino allylglycine (Ø = desamino analog), C=CCCC(=O)*; Rx = Nα-allyl-arginine, C=CCN([C@@H](CCCNC(=N)N)C(=O)[*:2])[*:1]; dcypTyr(OBn) = not defined here; pGlu = O=C1CC[C@@H](C(=O)O)N1; Nle = CCCC[C@H](N)C(=O)O; AIH = not defined here; B1 = not defined here; B3 = not defined here

Broadly, the Emax is the maximal effect, on the per cent scale that the assay sets. As for `CCCC[C@H](NC(=O)[C@@H]1CCCN1C(=O)CNC(=O)[C@H](CCCCN)NC(=O)[C@@H]1Cc2cncn2CC=CC[C@H](NC(=O)[C@H](CCCNC(=N)N)NC(=O)[C@@H]2CCC(=O)N2)C(=O)N[C@@H](CCCNC(=N)N)C(=O)N[C@@H](CC(C)C)C(=O)N[C@@H](CO)C(=O)N1)C(=O)N1CCC[C@H]1C(=O)N[C@@H](Cc1ccccc1)C(=O)O` [Compound 15, Pyr-R-c[X-R-L-S-Alh]c-K-G-P-Nle-P-F], the Emax in data set [1] (Table V, read-out: ß-arr2 Emax) came out at 115%; in [1] (read-out: β-arr2 Emax) it was 115%; in [2], 99%. The “ΔMABP (drop in blood pressure)” value in data set [3] is recorded as −40 mmHg.
For `CCCC[C@H](NC(=O)[C@@H]1CCCN1C(=O)CNC(=O)[C@H](CCCCN)NC(=O)[C@@H]1CC=CC[C@H](N)C(=O)N[C@@H](CCCNC(=N)N)C(=O)N[C@@H](CC(C)C)C(=O)N[C@@H](CO)C(=O)N1)C(=O)N1CCC[C@H]1C(=O)N[C@@H](Cc1ccccc1)C(=O)O` [Compound 20, NH2-c[X-R-L-S-X]c-K-G-P-Nle-P-F], the Emax in data set [1] (Table V, read-out: ß-arr2 Emax) worked out at 98%; in [1] (read-out: β-arr2 Emax), 98%; in [2], 100%. The “ΔMABP (drop in blood pressure)” value in data set [3] is on record as −27 mmHg.
`CCCC[C@H](NC(=O)[C@@H]1CCCN1C(=O)CNC(=O)[C@H](CCCCN)NC(=O)[C@@H]1CC=CC[C@H](N)C(=O)N[C@@H](CCCNC(=N)N)C(=O)N[C@@H](CC(C)C)C(=O)N[C@@H](CO)C(=O)N1)C(=O)O` [Compound 29, NH2-c[X-R-L-S-X]c-K-G-P-Nle]: the Emax in data set [1] (Table V, read-out: ß-arr2 Emax) stood at 69%; in [1] (read-out: β-arr2 Emax), 69%; in [2] it was 99%. The “ΔMABP (drop in blood pressure)” value in [3] is listed as −13 mmHg. Besides, the “times less stable than 20” value in data set [4] turned out to be 3 times. The “times less stable than full-length analog 13” value in [4] came out at 5 times.
On to `CC(C)C[C@@H]1NC(=O)[C@H](CCCNC(=N)N)NC(=O)[C@@H](N)CC=CC[C@@H](C(=O)N[C@@H](CCCCN)C(=O)NCC(=O)N2CCC[C@H]2C(=O)N[C@H](Cc2cccc3ccccc23)C(=O)O)NC(=O)[C@H](CO)NC1=O` [Compound 42, NH2-c[X-R-L-S-X]c-K-G-P-(D-1Nal)], for which the “agonist character on β-arrestin” value in [1] is on record as “partial agonists”. Also, the maximal effect (Emax) in data set [1] (Table V, read-out: ß-arr2 Emax) worked out at 70%; in [1] (read-out: β-arr2 Emax), 70%; in data set [2] it was 103%. Also, the “agonist character on Gαi1” value in data set [2] is “full agonists”. For the same molecule, the “effect on fractional shortening (FS) and cardiac output (CO)” value in data set [5] was “significant increase only in FS”. Further, the “ΔMABP (drop in blood pressure)” value in [3] is listed as −24 mmHg. Moreover, in data set [6] (3 mg/kg), the “plasma presence at 4 h” value is reported as “completely cleared from plasma”. Further, the AUC in [6] (i.v. 3 mg/kg) was 1.33 ± 0.18 min*(mg/mL).
By clearance is commonly meant a measure of how efficiently the substance is removed, as volume per time. Turning to `CSCC[C@H](NC(=O)[C@@H]1CCCN1C(=O)CNC(=O)[C@H](CCCCN)NC(=O)[C@H](Cc1cnc[nH]1)NC(=O)[C@H](CO)NC(=O)[C@H](CC(C)C)NC(=O)[C@H](CCCNC(=N)N)NC(=O)[C@@H]1CCCN1C(=O)[C@H](CCCNC(=N)N)NC(=O)[C@@H]1CCC(=O)N1)C(=O)N1CCC[C@H]1C(=O)N[C@@H](Cc1ccccc1)C(=O)O` [Compound 60, Pyr-R-P-R-L-S-H-K-G-P-M-P-F, reference compound], the “effect on fractional shortening (FS) and cardiac output (CO)” value in [5] was “no observable effect”. Besides, in data set [6] (i.v. 3 mg/kg), the completely disappeared after amounted to 5 min and the AUC was 0.0002 ± 0.0001 min*(mg/mL). For the same molecule, the clearance in data set [6] (male, Sprague-Dawley, rat, plasma, iv, 3 mg/kg) was more than 100 mL/min/kg.

B1: Compound 65 (KT02-99) (peptide)
peptide: Ac-KFRRQRPRLEHKKP[Nle]P[dcypTyr(OBn)]
modifications: lactam 10-13; reading uncertain; also: printed as Ac-K-F-R-R-Q-R-P-R-L-[E-H-K-K]-P-Nle-P-dcypTyrOBn
As a reminder, the Ki is the equilibrium dissociation constant of an inhibitor or competing ligand from its target. Low readings indicate tighter binding, high ones weaker binding. The molecule B1 came in with a Ki in [7] of 4.16 nM. In data set [8], the “EC50 Gαi1” value turned out to be 73 nM.
The matching figures for Ac-KFRRQRPRLEHKKP[Nle]P[cypY] (lactam 10-13) [Compound 64 (KT02-78)]: 0.77 nM and 19.4 nM.
On to Ac-ENTN[8‑aminooctanoic acid]RPRLKHKGP[Nle]PF (lactam 1-10) [Compound 46 (KT01-145)], for which, in data set [9], the Ki is 32 nM.

B2: Compound 27 (KT01-111) (peptide)
peptide: [pent‑4‑enoyl]RLS[AIH]KGP[Nle]PF
modifications: staple 1-5; not fully specified; printed as Ø-c[X-R-L-S-AIH]-K-G-P-Nle-P-F; reading uncertain
In data set [9], B2 had a Ki of 380 nM.
In data set [7], Ac-KFRRQRPRLEHKKP[Nle]P[Tyr(OBn)] (lactam 10-13) [Compound 66 (KT03-02)] returned a Ki of 1.6 nM. Also, the “EC50 Gαi1” value in data set [8] came to 21.7 nM.

B3: Compound 50 (KT01-181) (peptide)
peptide: RKPXY
modifications: NH2-R-c[K(N-butenyl)-P-X]-Tyr(Obn): K(N-butenyl) 2 and X (allylglycine) 4 close the macrocycle; Tyr(OBn) 5
As for B3, the Ki in data set [9] was 7180 nM.
In the case of [Rx]RLS[AIH]KGP[Nle]PF (staple 1-5; reading uncertain) [Compound 26 (KT01-120)], in data set [9], the Ki turned out to be 382 nM.
Still for that read-out and setting: the result for [pGlu]RKRLSDKGP[Nle]PF (lactam 3-7) [Compound 17 (KT01-106)] reads 39 nM.
For the molecule Ac-KFRRQRPRLEHAKPAPF (lactam 10-13) [Compound 62 (KT02-62)], in [8], the “EC50 Gαi1” value came out at 33.4 nM.
Molecule Ac-KFRRQRPRLEHKKP[Nle]P[B3] (lactam 10-13; reading uncertain; also: B3 structure not given here) [Compound 69 (KT02-20)] displayed a Ki in data set [7] of 3 nM.
Ac-KFRRQRPRLEHKKP[Nle]P[cypTyr(OBn)] (lactam 10-13) [Compound 63 (KT02-76)]: the affinity in [7], expressed as Ki, was 0.25 nM. Besides, the “EC50 Gαi1” value in data set [8] came out at 5.47 nM.
For Ac-KFRRQRPRLEHKKP[Nle]P[B1] (lactam 10-13; reading uncertain) [Compound 67 (KT02-18)], the Ki in data set [7] amounted to 12 nM.

The values above are taken from patent US20240343761A1, “APELINERGIC MACROCYCLES AND USES THEREOF” (priority 2021, published 2024).
